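Grown in 96-well plates, cells were treated for 48 hours with each compound at five concentrations. Insufficient inhibition: endpoint recorded as highest concentration tested. GI50 = concentration required for 50% inhibition of growth. TGI is the concentration that stops growth completely.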
Legend:
Assay in all cases: DTP human tumour cell line panel, 48 h
IGROV1 ovarian = tested on: IGROV1 ovarian
NCI-H23 lung = tested on: NCI-H23 lung
ACHN renal = tested on: ACHN renal
MDA-MB-435 = tested on: MDA-MB-435
SK-MEL-5 melanoma = tested on: SK-MEL-5 melanoma
HOP-62 NSCLC = tested on: HOP-62 NSCLC
NCI-H226 lung = tested on: NCI-H226 lung
A549 NSCLC = tested on: A549 NSCLC
RPMI-8226 leukemia = tested on: RPMI-8226 leukemia
OVCAR-8 ovarian = tested on: OVCAR-8 ovarian
SF-539 CNS = tested on: SF-539 CNS
OVCAR-5 ovarian = tested on: OVCAR-5 ovarian
SN12C renal = tested on: SN12C renal
HCT-116 colon = tested on: HCT-116 colon
RXF 393 renal = tested on: RXF 393 renal
HS 578T breast = tested on: HS 578T breast
SK-MEL-2 melanoma = tested on: SK-MEL-2 melanoma
K-562 leukemia = tested on: K-562 leukemia
OVCAR-4 ovarian = tested on: OVCAR-4 ovarian
SR leukemia = tested on: SR leukemia
NCI-H522 lung = tested on: NCI-H522 lung
CAKI-1 renal = tested on: CAKI-1 renal
SK-OV-3 ovarian = tested on: SK-OV-3 ovarian
KM12 colon = tested on: KM12 colon
PC-3 prostate = tested on: PC-3 prostate
SW-620 colon = tested on: SW-620 colon
MDA-MB-231 breast = tested on: MDA-MB-231 breast
TK-10 renal = tested on: TK-10 renal
HCT-15 colon = tested on: HCT-15 colon
SF-295 CNS = tested on: SF-295 CNS
HL-60(TB) leukemia = tested on: HL-60(TB) leukemia
HT29 colon = tested on: HT29 colon
CCRF-CEM leukemia = tested on: CCRF-CEM leukemia
HOP-92 NSCLC = tested on: HOP-92 NSCLC
SNB-19 CNS = tested on: SNB-19 CNS
MALME-3M melanoma = tested on: MALME-3M melanoma
OVCAR-3 ovarian = tested on: OVCAR-3 ovarian
U251 CNS = tested on: U251 CNS
HCC-2998 colon = tested on: HCC-2998 colon
T-47D breast = tested on: T-47D breast
SK-MEL-28 melanoma = tested on: SK-MEL-28 melanoma
SNB-75 CNS = tested on: SNB-75 CNS
MCF7 breast = tested on: MCF7 breast
NCI-H460 lung = tested on: NCI-H460 lung
UACC-257 melanoma = tested on: UACC-257 melanoma
SF-268 CNS = tested on: SF-268 CNS
LOX IMVI melanoma = tested on: LOX IMVI melanoma
DU-145 prostate = tested on: DU-145 prostate
UACC-62 melanoma = tested on: UACC-62 melanoma
786-0 renal = tested on: 786-0 renal
MOLT-4 leukemia = tested on: MOLT-4 leukemia
BT-549 breast = tested on: BT-549 breast
NCI/ADR-RES ovarian = tested on: NCI/ADR-RES ovarian
COLO 205 colon = tested on: COLO 205 colon
UO-31 renal = tested on: UO-31 renal

SMILES: O=C(NC1CCN(Cc2ccccc2)CC1)c1cc(C(=O)NC2CCN(Cc3ccccc3)CC2)cc(C(=O)NC2CCN(Cc3ccccc3)CC2)c1
- GI50 (IGROV1 ovarian): 25.2 µM
- TGI (IGROV1 ovarian): > 50 µM
- GI50 (NCI-H23 lung): 7.78 µM
- TGI (NCI-H23 lung): 15.7 µM
- GI50 (ACHN renal): > 50 µM
- TGI (ACHN renal): > 50 µM
- GI50 (MDA-MB-435): 0.923 µM
- TGI (MDA-MB-435): 1.85 µM
- GI50 (SK-MEL-5 melanoma): 7.9 µM
- TGI (SK-MEL-5 melanoma): 16.9 µM
- GI50 (HOP-62 NSCLC): 9.33 µM
- TGI (HOP-62 NSCLC): 19.7 µM
- GI50 (NCI-H226 lung): 14.7 µM
- TGI (NCI-H226 lung): > 50 µM
- GI50 (A549 NSCLC): 6.68 µM
- TGI (A549 NSCLC): 15.4 µM
- GI50 (RPMI-8226 leukemia): 5.52 µM
- TGI (RPMI-8226 leukemia): 20.8 µM
- GI50 (OVCAR-8 ovarian): 12.7 µM
- TGI (OVCAR-8 ovarian): 43.4 µM
- GI50 (SF-539 CNS): 0.865 µM
- TGI (SF-539 CNS): 1.62 µM
- GI50 (OVCAR-5 ovarian): 6.83 µM
- TGI (OVCAR-5 ovarian): 13.7 µM
- GI50 (SN12C renal): 15.6 µM
- TGI (SN12C renal): > 50 µM
- GI50 (HCT-116 colon): 3.51 µM
- TGI (HCT-116 colon): 14 µM
- GI50 (RXF 393 renal): 2.16 µM
- TGI (RXF 393 renal): 10.2 µM
- GI50 (HS 578T breast): 7.26 µM
- TGI (HS 578T breast): 16.9 µM
- GI50 (SK-MEL-2 melanoma): 9.02 µM
- TGI (SK-MEL-2 melanoma): 16.9 µM
- GI50 (K-562 leukemia): 2 µM
- TGI (K-562 leukemia): > 50 µM
- GI50 (OVCAR-4 ovarian): 2.43 µM
- TGI (OVCAR-4 ovarian): 10.2 µM
- GI50 (SR leukemia): 8.74 µM
- TGI (SR leukemia): 26.2 µM
- GI50 (NCI-H522 lung): 2.03 µM
- TGI (NCI-H522 lung): 10.1 µM
- GI50 (CAKI-1 renal): > 50 µM
- TGI (CAKI-1 renal): > 50 µM
- GI50 (SK-OV-3 ovarian): 8.27 µM
- TGI (SK-OV-3 ovarian): 16.1 µM
- GI50 (KM12 colon): 3.37 µM
- TGI (KM12 colon): 12.1 µM
- GI50 (PC-3 prostate): 7.73 µM
- TGI (PC-3 prostate): 19.5 µM
- GI50 (SW-620 colon): 3.86 µM
- TGI (SW-620 colon): 13 µM
- GI50 (MDA-MB-231 breast): 2.57 µM
- TGI (MDA-MB-231 breast): 11.6 µM
- GI50 (TK-10 renal): 18.3 µM
- TGI (TK-10 renal): > 50 µM
- GI50 (HCT-15 colon): > 50 µM
- TGI (HCT-15 colon): > 50 µM
- GI50 (SF-295 CNS): 6.76 µM
- TGI (SF-295 CNS): 15.6 µM
- GI50 (HL-60(TB) leukemia): 15.1 µM
- TGI (HL-60(TB) leukemia): > 50 µM
- GI50 (HT29 colon): 1.3 µM
- TGI (HT29 colon): 4.17 µM
- GI50 (CCRF-CEM leukemia): 1.75 µM
- TGI (CCRF-CEM leukemia): 5.17 µM
- GI50 (HOP-92 NSCLC): 5.55 µM
- TGI (HOP-92 NSCLC): 12.3 µM
- GI50 (SNB-19 CNS): 8.61 µM
- TGI (SNB-19 CNS): 17.6 µM
- GI50 (MALME-3M melanoma): 1.12 µM
- TGI (MALME-3M melanoma): 2.52 µM
- GI50 (OVCAR-3 ovarian): 10.7 µM
- TGI (OVCAR-3 ovarian): 44.6 µM
- GI50 (U251 CNS): 1.52 µM
- TGI (U251 CNS): 5.66 µM
- GI50 (HCC-2998 colon): 7.37 µM
- TGI (HCC-2998 colon): 16.6 µM
- GI50 (T-47D breast): 4.56 µM
- TGI (T-47D breast): 14.3 µM
- GI50 (SK-MEL-28 melanoma): 2.81 µM
- TGI (SK-MEL-28 melanoma): 9.5 µM
- GI50 (SNB-75 CNS): 1.48 µM
- TGI (SNB-75 CNS): 7.42 µM
- GI50 (MCF7 breast): 0.946 µM
- TGI (MCF7 breast): 1.85 µM
- GI50 (NCI-H460 lung): 8.07 µM
- TGI (NCI-H460 lung): 16.9 µM
- GI50 (UACC-257 melanoma): 8.08 µM
- TGI (UACC-257 melanoma): 16.5 µM
- GI50 (SF-268 CNS): 8.25 µM
- TGI (SF-268 CNS): 18.8 µM
- GI50 (LOX IMVI melanoma): 1.74 µM
- TGI (LOX IMVI melanoma): 6.94 µM
- GI50 (DU-145 prostate): 18.2 µM
- TGI (DU-145 prostate): > 50 µM
- GI50 (UACC-62 melanoma): 7.71 µM
- TGI (UACC-62 melanoma): 15.2 µM
- GI50 (786-0 renal): 14.8 µM
- TGI (786-0 renal): > 50 µM
- GI50 (MOLT-4 leukemia): 1.22 µM
- TGI (MOLT-4 leukemia): 3.16 µM
- GI50 (BT-549 breast): 2.01 µM
- TGI (BT-549 breast): 11.4 µM
- GI50 (NCI/ADR-RES ovarian): > 50 µM
- TGI (NCI/ADR-RES ovarian): > 50 µM
- GI50 (COLO 205 colon): 3.62 µM
- TGI (COLO 205 colon): 10.6 µM
- GI50 (UO-31 renal): > 50 µM
- TGI (UO-31 renal): > 50 µM

From PubChem BioAssay (NCI)
